Test results published in patent US10842845B2, “Oxytocin improves treatment of obstructive sleep apnea” (THE GEORGE WASHINGTON UNIVERSITY, priority 2014, dated 2020).
“Also recorded” adds a separate entry of the source.

Legend:
[1] = system: Patients recently diagnosed with OSA; assay: Intranasal oxytocin in patients recently diagnosed with OSA (polysomnography, sleep quality score); type: in vivo, human; settings: 40 IU oxytocin intranasally about one hour prior to sleeping
Method: Patients recently diagnosed with OSA were recruited to test the effect of oxytocin administration on heart rate, apnea-hypopnea index, oxygen saturation, apnea duration, arousal index etc. The study is approved by the FDA (IND #120989). Patients were administered 40 IU of oxytocin intranasally about one hour prior to sleeping.
The following eight outcomes were compared in the same patients prior to and after administration with oxytocin: • basal heart rate before sleep (primary outcome) • mean changes in heart rate with apneic and hypopneic events (primary outcome) • apnea-hypopnea index (secondary outcome) • percentage of time spent by the patient with oxygen saturations: >90%, >80% but <90%, and <80% (secondary outcome) • duration of apneas • oxygen desaturation during apneas (expressed as adverse desaturations in percent oxygen) • numbers of arousals (expressed per hour) • sleep quality
The following information was recorded for each patient before and after the use of intranasal oxytocin:
• a. Basal heart rate before sleep • b. Apnea-hypopnea index • c. Mean changes in heart rate with apneic and hypopneic events • d. Percentage of time spent by the patient with oxygen saturations: >90%, >80% but <90%, and <80%. • e. Duration of apneas • f. Oxygen desaturation during apneas (expressed as adverse desaturations in percent oxygen) • g. Numbers of arousals (expressed per hour) • h. Sleep quality 3. Standard of care sleep study data using PSG: Polysomnography (PSG) monitors many body functions during sleep, including brain (EEG), eye movements (EOG), muscle activity or skeletal muscle activation (EMG), heart rhythm (ECG), respiratory airflow, thoracic and abdominal respiratory effort, body position, limb movement, and oxygen saturation using pulse oximetry. Recording and scoring was done according to the standards set by the American Academy of Sleep Medicine. 4. Sleep quality score: Patients were asked to rank their responses using the scale of 1-5 for a set of empirical factors: • 1—Strongly disagree • 2—Slightly disagree • 3—Neither agree nor disagree • 4—Slightly agree • 5—Strongly agree Empirical Factors: • I feel more refreshed than usual this morning • My quality of sleep last night was better than usual • I slept deeper than usual last night • I woke up fewer times than usual last night • I slept longer than usual last night • I feel better overall than usual this morning

rats = settings: acute icy infusion of oxytocin; cited from earlier work
[2] = same patients prior to and after administration

Compound: CC[C@H](C)[C@@H]1NC(=O)[C@H](Cc2ccc(O)cc2)NC(=O)[C@@H](N)CSSC[C@@H](C(=O)N2CCC[C@H]2C(=O)N[C@@H](CC(C)C)C(=O)NCC(N)=O)NC(=O)[C@H](CC(N)=O)NC(=O)[C@H](CCC(N)=O)NC1=O [oxytocin]
- duration of apnea [1, 2]: reduces
- number of arousals/hour [1, 2]: decreases; also recorded: reduces
- oxygen desaturation [1, 2]: reduces
- sleep quality or sleep satisfaction ([1]; score on scale of 1-5 for empirical factors): improves
- high-frequency activity in the electroencephalogram (EEG) within non-REMS (rats): augmented
- non-REMS and REMS (rats): transient reduction
- sleep onset latency (rats): delayed
